We go through 18 compounds from patent publication US20250134871A1, “UPR MODULATORS TO TREAT HEARING LOSS” (JACARANDA BIOSCIENCES, INC., priority 2021, published 2025).

In one experiment the test system is CHOP. The experiment is described as follows: ER stress induction in HEK cells treated with compounds (CHOP mRNA, qPCR). The class given is cell-based. Particulars: HEK 293 cells, 0.5 μM thapsigargin and 0.1 to 5.0 μM of each drug for 2 hours; CHOP mRNA by qPCR, ΔΔCt vs GAPDH. The method, then:
HEK 293 cells were cultured in DMEM with 10% FBS, Pen/Strep in 5% CO2, at 37° C. in incubator. Cells were split and seeded at approximately 2×10^4 cells in each well of 96-well plate one day before treatment. Cells were grown in good shape and passaged one or two times before testing.
Cells were treated with 0.5 μM thapsigargin and 0.1 to 5.0 μM of each drug for 2 hours. The cells were then harvested, pelleted and treated to ready for testing mRNA abundance for specific UPR genes from cells in the PCR reaction using the TaqMan™ Gene Expression Cells-to-CT™ Kit (Thermo Fisher). Prescreened primers were ordered from Bio-Rad. The gene tested is CHOP, (the C/EBP Homologous Protein). These markers were compared against GAPDH. The qPCR system we used was CFX 384 Real time (Bio-Rad). Samples were measured in triplicates and relative quantification, by the ΔΔCt-method, using GAPDH as reference. The biological results are summarized in Table 1 where A represents a greater than 50% reduction in CHOP signal in compound-treated versus untreated cells, B represents a 20% to 50% reduction in CHOP signal, and C represents a 1% to 20% reduction in CHOP signal.
A general note: Real-time PCR tracks product formation cycle by cycle.
Consider `O=C(COc1ccccc1)Nc1ccc(NC(=O)COc2ccccc2)cc1` [Compound A1, 2-Phenoxy-N-[4-(2-phenoxyacetylamino)phenyl]acetamide], for which the CHOP reduction entry is “A (A represents a greater than 50% reduction in CHOP signal in compound-treated versus untreated cells)”.

In the case of `O=C(COc1ccc(Cl)cc1)Nc1ccc(NC(=O)COc2ccc(Cl)cc2)cc1` [Compound A2, 2-(4-Chlorophenoxy)-N-[4-[[2-(4-chlorophenoxy)acetyl]amino]phenyl]acetamide], the CHOP reduction entry is “B (B represents a 20% to 50% reduction in CHOP signal)”.

On to `CC(C)(C)c1ccc(OCC(=O)Nc2ccc(NC(=O)COc3ccc(C(C)(C)C)cc3)cc2)cc1` [Compound A3, N,N′-Benzene-1,4-diylbis [2-(4-tert-butylphenoxy)acetamide]], for which the CHOP reduction entry is “C (C represents a 1% to 20% reduction in CHOP signal)”.

`Cc1ccc(OCC(=O)Nc2ccc(NC(=O)COc3ccc(C)cc3)cc2)cc1` [Compound A4, N,N′-Benzene-1,4-diylbis [2-(4-methylphenoxy)acetamide]]: the CHOP reduction result is given as “C (C represents a 1% to 20% reduction in CHOP signal)”.

As to `O=C(COc1ccccc1)Nc1ccc(NC(=O)COc2ccccc2)nc1` [Compound B1, 2-Phenoxy-N-[6-[[2-phenoxyacetyl]amino]pyridin-3-yl]acetamide], the CHOP reduction result is given as “C (C represents a 1% to 20% reduction in CHOP signal)”.

`O=C(COc1ccc(Cl)cc1)Nc1ccc(NC(=O)COc2ccc(Cl)cc2)nc1` [Compound B2, 2-(4-Chlorophenoxy)-N-[6-[[2-(4-chlorophenoxy)acetyl]amino]pyridin-3-yl]acetamide]: the CHOP reduction entry is on record as “A (A represents a greater than 50% reduction in CHOP signal in compound-treated versus untreated cells)”.

As for `Cc1ccc(OCC(=O)Nc2ccc(NC(=O)COc3ccc(C)cc3)nc2)cc1` [Compound B3, 2-(4-Methylphenoxy)-N-[6-[[2-(4-methylphenoxy)acetyl]amino]pyridin-3-yl]acetamide], the CHOP reduction result is “B (B represents a 20% to 50% reduction in CHOP signal)”.

In the case of `O=C(COc1ccccc1)Nc1cnc(NC(=O)COc2ccccc2)c(Br)c1` [Compound B4, 2-Phenoxy-N-[5-bromo-6-[[2-phenoxyacetyl]amino]pyridin-3-yl]acetamide], the CHOP reduction result is “C (C represents a 1% to 20% reduction in CHOP signal)”.

Consider `O=C(COc1ccc(Cl)cc1)Nc1cnc(NC(=O)COc2ccc(Cl)cc2)c(Br)c1` [Compound B5, 2-(4-Chlorophenoxy)-N-[5-bromo-6-[[2-(4-chlorophenoxy)acetyl]amino]pyridin-3-yl]acetamide], for which the CHOP reduction result is reported as “C (C represents a 1% to 20% reduction in CHOP signal)”.

As for `Cc1ccc(OCC(=O)Nc2cnc(NC(=O)COc3ccc(C)cc3)c(Br)c2)cc1` [Compound B6, 2-(4-Methylphenoxy)-N-[5-bromo-6-[[2-(4-methylphenoxy)acetyl]amino]pyridin-3-yl]acetamide], the CHOP reduction result is “C (C represents a 1% to 20% reduction in CHOP signal)”.

For `CC(C)(C)c1ccc(OCC(=O)Nc2cnc(NC(=O)COc3ccc(C(C)(C)C)cc3)c(Br)c2)cc1` [Compound B7, 2-(4-tert-Butylphenoxy)-N-[5-bromo-6-[[2-(4-tert-butylphenoxy)acetyl]amino]pyridin-3-yl]acetamide], the CHOP reduction result is given as “B (B represents a 20% to 50% reduction in CHOP signal)”.

Regarding `Cc1cc(NC(=O)COc2ccccc2)ccc1NC(=O)COc1ccccc1` [Compound C1, 2-Phenoxy-N-[2-methyl-4-(2-phenoxyacetylamino)phenyl]acetamide], the CHOP reduction result is on record as “B (B represents a 20% to 50% reduction in CHOP signal)”.

Take `Cc1cc(NC(=O)COc2ccc(Cl)cc2)ccc1NC(=O)COc1ccc(Cl)cc1` [Compound C2, 2-(4-Chlorophenoxy)-N-[2-methyl-4-[[2-(4-chlorophenoxy)acetyl]amino]phenyl]acetamide]: the CHOP reduction result is “A (A represents a greater than 50% reduction in CHOP signal in compound-treated versus untreated cells)”.

In the case of `O=C(COc1ccccc1)Nc1ccc(NC(=O)COc2ccccc2)c(Cl)c1` [Compound C5, 2-Phenoxy-N-[2-chloro-4-(2-phenoxyacetylamino)phenyl]acetamide], the CHOP reduction result is listed as “B (B represents a 20% to 50% reduction in CHOP signal)”.

Consider `O=C(COc1ccc(Cl)cc1)Nc1ccc(NC(=O)COc2ccc(Cl)cc2)c(Cl)c1` [Compound C6, 2-(4-Chlorophenoxy)-N-[2-chloro-4-[[2-(4-chlorophenoxy)acetyl]amino]phenyl]acetamide], for which the CHOP reduction entry is recorded as “A (A represents a greater than 50% reduction in CHOP signal in compound-treated versus untreated cells)”.

As for `Cc1ccc(OCC(=O)Nc2ccc(NC(=O)COc3ccc(C)cc3)c(Cl)c2)cc1` [Compound C7, N,N′-2-Chlorobenzene-1,4-diylbis[2-(4-methylphenoxy)acetamide]], the CHOP reduction entry was “C (C represents a 1% to 20% reduction in CHOP signal)”.

Regarding `CC(C)(C)c1ccc(OCC(=O)Nc2ccc(NC(=O)COc3ccc(C(C)(C)C)cc3)c(Cl)c2)cc1` [Compound C8, N,N′-2-Chlorobenzene-1,4-diylbis[2-(4-tert-butylphenoxy)acetamide]], the CHOP reduction entry was “B (B represents a 20% to 50% reduction in CHOP signal)”.

The next experiment has as its system hearing loss from noise exposure.
Experiment: not given
The following applies: after a transient threshold shift; cited from earlier work.
Regarding `O=C(COc1ccc(Cl)cc1)NC1CCC(NC(=O)COc2ccc(Cl)cc2)CC1` (stereo not shown) [ISRIB], the “cochlear synaptopathy after a transient threshold shift” value was “can prevent cochlear synatopathy after a transient threshold shift”.

The experiment is the same for the next values; noted with them: mice, noise exposure; cited from earlier work.
Turning to `O=C(COc1ccc(Cl)cc1)NC1CCC(NC(=O)COc2ccc(Cl)cc2)CC1` (stereo not shown) [ISRIB], the “hearing loss from noise exposure (permanent threshold shift)” value is “can prevent hearing loss in mice from noise exposure”.
